Key:
[1] = tested on: PC-3; experiment: Growth inhibition of human PC3 cells after 48 hrs by SRB assay; type: functional; details: PC-3, 48 h
[2] = tested on: RXF 393; experiment: Growth inhibition of human RXF393 cells after 48 hrs by SRB assay; type: functional; details: RXF 393, 48 h
[3] = biological target: T1, Ribosomal protein S6 kinase alpha-3 (Homo sapiens, UniProt P51812)
Description: Inhibition of RSK2 assessed as inhibition of substrate phosphorylation using fluorescent peptide substrate by microplate reader assay

[4] = tested on: UACC-62; experiment: Growth inhibition of human UACC62 cells after 48 hrs by SRB assay; type: functional; details: UACC-62, 48 h
[5] = tested on: CAKI-1; experiment: Growth inhibition of human Caki1 cells after 48 hrs by SRB assay; type: functional; details: CAKI-1, 48 h
[6] = tested on: U-251; experiment: Growth inhibition of human U251 cells after 48 hrs by SRB assay; type: functional; details: U-251, 48 h
[7] = tested on: Malme-3M; experiment: Growth inhibition of human MALME-3M cells after 48 hrs by SRB assay; type: functional
[8] = tested on: KM12; experiment: Growth inhibition of human KM12 cells after 48 hrs by SRB assay; type: functional; details: KM12, 48 h
[9] = tested on: HT-29; experiment: Growth inhibition of human HT-29 cells after 48 hrs by SRB assay; type: functional; details: HT-29, 48 h
[10] = biological target: ALK tyrosine kinase receptor (Homo sapiens, UniProt Q9UM73)
Chain of ALK tyrosine kinase receptor (Q9UM73 whole entry): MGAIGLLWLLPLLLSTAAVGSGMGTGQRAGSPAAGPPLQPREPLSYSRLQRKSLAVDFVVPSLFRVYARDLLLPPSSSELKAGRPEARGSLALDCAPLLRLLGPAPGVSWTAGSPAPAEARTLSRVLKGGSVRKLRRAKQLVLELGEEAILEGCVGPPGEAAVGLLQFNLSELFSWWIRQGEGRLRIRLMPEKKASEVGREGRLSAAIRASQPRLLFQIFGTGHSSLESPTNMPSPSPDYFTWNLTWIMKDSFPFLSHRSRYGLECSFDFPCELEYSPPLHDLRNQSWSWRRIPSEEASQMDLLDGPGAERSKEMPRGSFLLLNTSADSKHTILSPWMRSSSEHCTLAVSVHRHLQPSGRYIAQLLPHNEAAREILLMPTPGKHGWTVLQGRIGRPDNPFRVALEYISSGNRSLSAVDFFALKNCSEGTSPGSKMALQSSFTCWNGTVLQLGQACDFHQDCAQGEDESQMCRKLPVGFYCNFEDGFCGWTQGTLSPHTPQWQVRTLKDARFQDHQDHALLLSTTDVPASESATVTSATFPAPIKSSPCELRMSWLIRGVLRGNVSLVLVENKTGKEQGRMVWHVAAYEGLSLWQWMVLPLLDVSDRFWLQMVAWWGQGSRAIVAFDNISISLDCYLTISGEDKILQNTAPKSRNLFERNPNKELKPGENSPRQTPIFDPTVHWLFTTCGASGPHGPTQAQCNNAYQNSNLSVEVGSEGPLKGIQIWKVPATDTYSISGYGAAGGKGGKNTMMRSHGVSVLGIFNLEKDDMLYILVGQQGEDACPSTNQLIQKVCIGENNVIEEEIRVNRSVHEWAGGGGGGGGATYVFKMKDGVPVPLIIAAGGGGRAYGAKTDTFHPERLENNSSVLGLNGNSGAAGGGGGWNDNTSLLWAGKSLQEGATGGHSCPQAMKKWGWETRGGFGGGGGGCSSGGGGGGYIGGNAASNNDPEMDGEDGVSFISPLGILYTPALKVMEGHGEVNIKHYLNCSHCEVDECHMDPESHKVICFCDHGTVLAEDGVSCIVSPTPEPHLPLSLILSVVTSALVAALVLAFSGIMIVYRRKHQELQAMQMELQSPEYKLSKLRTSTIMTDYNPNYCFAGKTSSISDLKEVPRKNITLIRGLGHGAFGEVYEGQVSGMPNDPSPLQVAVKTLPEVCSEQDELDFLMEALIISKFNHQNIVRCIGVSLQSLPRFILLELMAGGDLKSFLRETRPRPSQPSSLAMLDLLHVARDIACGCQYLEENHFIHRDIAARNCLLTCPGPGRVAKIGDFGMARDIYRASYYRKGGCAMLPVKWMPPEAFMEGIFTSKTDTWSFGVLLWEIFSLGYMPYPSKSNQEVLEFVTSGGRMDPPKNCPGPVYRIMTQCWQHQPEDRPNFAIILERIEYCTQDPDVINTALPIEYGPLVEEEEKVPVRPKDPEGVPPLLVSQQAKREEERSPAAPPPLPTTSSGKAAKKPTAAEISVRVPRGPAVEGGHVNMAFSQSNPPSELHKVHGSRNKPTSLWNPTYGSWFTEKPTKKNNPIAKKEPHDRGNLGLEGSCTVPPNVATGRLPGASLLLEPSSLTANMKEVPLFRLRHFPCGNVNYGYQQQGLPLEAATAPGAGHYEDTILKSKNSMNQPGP

[11] = tested on: OVCAR-4; experiment: Growth inhibition of human OVCAR4 cells after 48 hrs by SRB assay; type: functional; details: OVCAR-4, 48 h
[12] = tested on: SN12C; experiment: Growth inhibition of human SN12C cells after 48 hrs by SRB assay; type: functional
[13] = tested on: K562; experiment: Growth inhibition of human K562 cells after 48 hrs by SRB assay; type: functional; details: K562, 48 h
[14] = tested on: COLO 205; experiment: Growth inhibition of human COLO205 cells after 48 hrs by SRB assay; type: functional; details: COLO 205, 48 h
[15] = tested on: NCI-H460; experiment: Growth inhibition of human NCI-H460 cells after 48 hrs by SRB assay; type: functional; details: NCI-H460, 48 h
[16] = tested on: MOLT-4; experiment: Growth inhibition of human MOLT4 cells after 48 hrs by SRB assay; type: functional; details: MOLT-4, 48 h
[17] = biological target: Ribosomal protein S6 kinase alpha-1 (Homo sapiens, UniProt Q15418)
Chain of Ribosomal protein S6 kinase alpha-1 (Q15418 whole entry): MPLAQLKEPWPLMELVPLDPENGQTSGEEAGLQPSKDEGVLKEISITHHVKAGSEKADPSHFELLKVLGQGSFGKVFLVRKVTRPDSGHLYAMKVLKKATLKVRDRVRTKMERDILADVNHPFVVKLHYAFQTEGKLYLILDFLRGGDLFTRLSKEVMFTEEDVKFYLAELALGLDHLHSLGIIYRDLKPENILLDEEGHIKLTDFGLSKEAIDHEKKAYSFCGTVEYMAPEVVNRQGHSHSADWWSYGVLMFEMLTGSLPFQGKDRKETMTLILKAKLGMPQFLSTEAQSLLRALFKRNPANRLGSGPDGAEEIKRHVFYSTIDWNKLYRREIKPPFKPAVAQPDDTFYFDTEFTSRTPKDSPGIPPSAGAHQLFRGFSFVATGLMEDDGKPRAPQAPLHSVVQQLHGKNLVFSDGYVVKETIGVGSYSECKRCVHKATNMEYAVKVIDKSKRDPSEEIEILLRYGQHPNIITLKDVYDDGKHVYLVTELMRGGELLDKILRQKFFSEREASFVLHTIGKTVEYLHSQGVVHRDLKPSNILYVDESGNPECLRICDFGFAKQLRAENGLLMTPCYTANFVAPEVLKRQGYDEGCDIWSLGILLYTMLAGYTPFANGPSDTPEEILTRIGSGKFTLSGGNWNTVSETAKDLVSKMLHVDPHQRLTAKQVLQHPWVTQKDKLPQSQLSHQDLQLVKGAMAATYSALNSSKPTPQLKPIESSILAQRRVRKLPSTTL

[18] = tested on: T47D; experiment: Growth inhibition of human T47D cells after 48 hrs by SRB assay; type: functional
[19] = tested on: 786-0; experiment: Growth inhibition of human 786-0 cells after 48 hrs by SRB assay; type: functional; details: 786-0, 48 h
[20] = biological target: T2, Serine/threonine-protein kinase Chk1 (Homo sapiens, UniProt O14757)
T2 sequence (O14757 whole entry): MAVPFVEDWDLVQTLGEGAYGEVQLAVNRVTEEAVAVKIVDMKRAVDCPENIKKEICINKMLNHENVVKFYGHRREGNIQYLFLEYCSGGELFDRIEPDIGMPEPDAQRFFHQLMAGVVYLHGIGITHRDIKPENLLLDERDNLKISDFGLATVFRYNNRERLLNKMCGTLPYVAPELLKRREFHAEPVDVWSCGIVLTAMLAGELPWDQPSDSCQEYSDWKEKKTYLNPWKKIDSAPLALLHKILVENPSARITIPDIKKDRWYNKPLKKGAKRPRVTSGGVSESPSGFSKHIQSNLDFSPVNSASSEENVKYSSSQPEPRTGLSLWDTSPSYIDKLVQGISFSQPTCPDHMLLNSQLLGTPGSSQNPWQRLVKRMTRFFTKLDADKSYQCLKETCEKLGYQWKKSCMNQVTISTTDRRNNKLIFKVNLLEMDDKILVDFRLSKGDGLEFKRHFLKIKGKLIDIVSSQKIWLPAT

[21] = Growth inhibition of human OVCAR1 cells after 48 hrs by SRB assay; type: functional; details: OVCAR1, 48 h
[22] = tested on: NCI-H23; experiment: Growth inhibition of human NCI-H23 cells after 48 hrs by SRB assay; type: functional; details: NCI-H23, 48 h
[23] = tested on: HOP-62; experiment: Growth inhibition of human HOP62 cells after 48 hrs by SRB assay; type: functional; details: HOP-62, 48 h
[24] = biological target: Aurora kinase A (Homo sapiens, UniProt O14965)
Chain of Aurora kinase A (O14965 whole entry): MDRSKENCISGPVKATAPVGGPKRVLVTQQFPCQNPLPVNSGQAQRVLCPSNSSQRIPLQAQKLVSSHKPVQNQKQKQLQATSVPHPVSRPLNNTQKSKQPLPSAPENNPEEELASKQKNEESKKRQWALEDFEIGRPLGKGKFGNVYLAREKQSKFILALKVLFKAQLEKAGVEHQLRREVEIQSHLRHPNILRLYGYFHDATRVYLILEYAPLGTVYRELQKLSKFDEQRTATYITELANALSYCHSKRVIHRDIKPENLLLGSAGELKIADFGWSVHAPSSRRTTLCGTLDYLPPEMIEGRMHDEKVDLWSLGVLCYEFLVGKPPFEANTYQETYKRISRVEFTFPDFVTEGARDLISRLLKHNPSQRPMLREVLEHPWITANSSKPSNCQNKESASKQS

[25] = tested on: HL-60(TB); experiment: Growth inhibition of human HL-60(TB) cells after 48 hrs by SRB assay; type: functional; details: HL-60, 48 h
[26] = tested on: HCT-15; experiment: Growth inhibition of human HCT15 cells after 48 hrs by SRB assay; type: functional; details: HCT-15, 48 h
[27] = tested on: BT-549; experiment: Growth inhibition of human BT549 cells after 48 hrs by SRB assay; type: functional; details: BT-549, 48 h
[28] = tested on: SF-539; experiment: Growth inhibition of human SF539 cells after 48 hrs by SRB assay; type: functional; details: SF-539, 48 h
[29] = biological target: T1, Ribosomal protein S6 kinase alpha-3; remark: listed apart in the source
[30] = Growth inhibition of human Hs 578T cells after 48 hrs by SRB assay; type: functional
[31] = tested on: HCC 2998; experiment: Growth inhibition of human HCC2998 cells after 48 hrs by SRB assay; type: functional; details: HCC 2998, 48 h
[32] = tested on: MCF7; experiment: Growth inhibition of human MCF7 cells after 48 hrs by SRB assay; type: functional; details: MCF7, 48 h
[33] = read-out: pLC50 (the source's name) (converted)

T1 sequence (P51812 whole entry): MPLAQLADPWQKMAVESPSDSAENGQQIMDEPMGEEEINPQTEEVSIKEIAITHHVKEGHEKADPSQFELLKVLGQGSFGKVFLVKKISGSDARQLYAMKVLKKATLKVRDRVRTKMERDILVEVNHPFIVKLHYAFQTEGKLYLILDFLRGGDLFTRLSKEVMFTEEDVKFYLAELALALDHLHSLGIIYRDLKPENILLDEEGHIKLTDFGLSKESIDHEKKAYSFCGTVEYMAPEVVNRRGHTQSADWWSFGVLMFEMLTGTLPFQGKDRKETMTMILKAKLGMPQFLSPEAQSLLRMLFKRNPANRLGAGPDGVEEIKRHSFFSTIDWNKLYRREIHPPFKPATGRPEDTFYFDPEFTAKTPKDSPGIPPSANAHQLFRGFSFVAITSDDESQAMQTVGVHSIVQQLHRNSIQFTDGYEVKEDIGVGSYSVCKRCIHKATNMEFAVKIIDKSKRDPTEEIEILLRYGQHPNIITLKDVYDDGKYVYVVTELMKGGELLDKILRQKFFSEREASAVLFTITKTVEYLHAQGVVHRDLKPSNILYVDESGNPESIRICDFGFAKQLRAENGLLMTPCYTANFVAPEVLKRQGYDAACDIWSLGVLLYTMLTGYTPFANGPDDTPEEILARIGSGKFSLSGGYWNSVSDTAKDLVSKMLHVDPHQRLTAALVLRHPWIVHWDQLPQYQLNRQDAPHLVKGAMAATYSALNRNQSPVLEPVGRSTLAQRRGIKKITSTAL

## N=C(N)N/N=C\c1c(-c2ccc([N+](=O)[O-])cc2)nc2sc(Br)cn12
[1]
  GI50: 186 nM
[1]; [33]
  CC50: 759 nM
[1]; read-out: pTGI (converted)
  TGI: 380 nM
[2]
  GI50: 186 nM
[2]; [33]
  CC50: 759 nM
[2]; read-out: pTGI (converted)
  TGI: 372 nM
[3]
  IC50: 1230 nM
[4]
  GI50: 347 nM
[4]; [33]
  CC50: 4570 nM
[4]; read-out: pTGI (converted)
  TGI: 4470 nM
[5]
  GI50: 234 nM
[5]; [33]
  CC50: 4790 nM
[5]; read-out: pTGI (converted)
  TGI: 1070 nM
[6]
  GI50: 195 nM
[6]; [33]
  CC50: > 100000 nM
[7]
  GI50: 1000 nM
[7]; read-out: pTGI (converted)
  TGI: 4170 nM
[8]
  GI50: 200 nM
[8]; [33]
  CC50: 759 nM
[8]; read-out: pTGI (converted)
  TGI: 389 nM
[9]
  GI50: 178 nM
[9]; [33]
  CC50: 646 nM
[9]; read-out: pTGI (converted)
  TGI: 339 nM
[10]
  IC50: > 20000 nM
[11]
  GI50: 191 nM
[11]; [33]
  CC50: 776 nM
[11]; read-out: pTGI (converted)
  TGI: 380 nM
[12]
  GI50: 617 nM
[12]; [33]
  CC50: 5890 nM
[12]; read-out: pTGI (converted)
  TGI: 2820 nM
[13]
  GI50: 40.7 nM
[14]
  GI50: 166 nM
[14]; [33]
  CC50: 646 nM
[14]; read-out: pTGI (converted)
  TGI: 331 nM
[15]
  GI50: 229 nM
[15]; [33]
  CC50: 1820 nM
[15]; read-out: pTGI (converted)
  TGI: 501 nM
[16]
  GI50: 195 nM
[17]
  IC50: 1180 nM
[18]
  GI50: 170 nM
[18]; read-out: pTGI (converted)
  TGI: 3630 nM
[19]
  GI50: 174 nM
[19]; [33]
  CC50: 575 nM
[19]; read-out: pTGI (converted)
  TGI: 316 nM
[20]
  IC50: 13800 nM
[21]
  GI50: 186 nM
[21]; [33]
  CC50: 661 nM
[21]; read-out: pTGI (converted)
  TGI: 347 nM
[22]
  GI50: 389 nM
[22]; [33]
  CC50: 3980 nM
[22]; read-out: pTGI (converted)
  TGI: 4470 nM
[23]
  GI50: 191 nM
[23]; [33]
  CC50: 851 nM
[23]; read-out: pTGI (converted)
  TGI: 3980 nM
[24]
  IC50: > 20000 nM
[25]
  GI50: 219 nM
[26]
  GI50: 302 nM
[26]; [33]
  CC50: > 100000 nM
[26]; read-out: pTGI (converted)
  TGI: 26900 nM
[27]
  GI50: 186 nM
[27]; [33]
  CC50: 7240 nM
[27]; read-out: pTGI (converted)
  TGI: 3630 nM
[28]
  GI50: 372 nM
[28]; [33]
  CC50: 3720 nM
[28]; read-out: pTGI (converted)
  TGI: 1260 nM
[29]
  IC50: 607 nM
[30]
  GI50: 288 nM
[30]; [33]
  CC50: 3470 nM
[30]; read-out: pTGI (converted)
  TGI: 933 nM
[31]
  GI50: 234 nM
[31]; [33]
  CC50: 2340 nM
[31]; read-out: pTGI (converted)
  TGI: 646 nM
[32]
  GI50: 162 nM
[32]; read-out: pTGI (converted)
  TGI: 324 nM

— ChEMBL document CHEMBL1909514, “Imidazo[2,1-b]thiazole guanylhydrazones as RSK2 inhibitors” (Eur J Med Chem, 2011)
